“Also recorded” adds a separate entry of the source. Oligonucleotides are written 5' to 3', each unit as a sugar letter and its base; * is a phosphorothioate linkage, no mark a phosphodiester; rarer units and linkages stand in square brackets, end groups in braces. Plain capitals give the bases only. d = 2'-deoxy (DNA)
Tests used:
[1] = system: HTLV-IIIB virus (HIV) in ATH8 cells; assay: HIV cytopathic effect inhibition in ATH8 cells; assay type: cell-based; conditions: for anti-HIV activity / protection against cytopathic effect: ATH8 cells
Method: Because it is possible that inter-assay variation may create an inappropriate comparison of antiviral activity among agents, experiments were performed simultaneously to make more precise comparisons.
After a number of days in culture, generally 7-10 days, either substantial cell death due to HIV infection (HIV cytopathic effect) or the protective effect of oligos against the cytopathicity of HIV was observed.

[2] = system: gamma-interferon; assay: Induction of gamma-interferon in culture supernatant; assay type: cell-based
Excerpt: Another mechanism which should be considered is induction of interferon production such as that proposed for phophorothioate analogs of poly-r(I-C). […] Also, since there are no data to support the concept that phosphorothioate internucleotide linkages have a thiol character, and can thus form disulfides, the mechanism of action would likely be different from that proposed for antiviral polynucleotides having thiolated bases such as 5-mercapto-cytosine or -uracil.

[3] = Stability in in vitro test media followed by 31P NMR; assay type: in vitro ADME
Excerpt: The phosphorothioate oligodeoxynucleotides of the present invention have suitable chemical characteristics, namely, the ability to hybridize with complementary DNA/mRNA under physiological conditions, and better solubility properties relative to methylphosphonates. Moreover, the thioesters are as soluble in biological media as the parent compounds.
Thus, it is believed that it is mainly the relative resistance of the phosphorothioate analogs to nucleases that preserves them relative to n-ODNs, and allows them to reach and remain at their target site. This was supported in relation to the media used in the in vitro test system by following the 31P NMR spectra of the n-ODN-1 and S-ODN-1 compounds as a function of time.

[4] = system: de novo HIV DNA synthesis; assay: Southern blot analysis of de novo HIV DNA synthesis in ATH8 cells; assay type: cell-based
Excerpt: Target cells (1×10^7 ATH8 cells) were pretreated with or without S-dC28 at various concentrations for sixteen hours, then treated with Polynrene, exposed to HIV (500 virus particles per cell), resuspended, and cultured in the presence or absence of S-dC28. On days 4 and 7 following the exposure to the virus, high molecular weight DNA was extracted, digested with Asp718 (a Kpn I isoschizomer from Boehringer-Mannheim, Indianapolis, Ind.), and subjected to Southern blot analysis hybridized with a labelled insert of molecular clone of the env region of HTLV-III (BH10) containing a 1.3 Kb Bgl II fragment.
On days 4 and 7 following the exposure to the virus, a substantial amount of viral DNA was detected by Southern blot analysis without antiviral agents.
On day 4, shown in lanes A-E, and day 7, shown in lanes F-J, following exposure to the virus, high molecular weight DNA was extracted. Lanes A and F contain DNA from ATH8 cells that were exposed to the virus and not protected by S-dC28. Lanes B and G, C and H, D and I, contain DNA from ATH8 cells pretreated and cultured with 1 micromole, 5 micromoles, and 7 micromoles S-dC28, respectively. Lanes E and J contain DNA from ATH8 cells treated with 50 micromoles 2',3'-dideoxyadenonsine, and lane K contains DNA from ATH8 cells that was not exposed to the virus.

[5] = system: T4 molecule in T4 cells (H9 cells); assay: HIV binding to T4 molecule in H9 cells (radiolabelled virus)
Method: (§1) The possibility that the S-ODN analogs may interfere with HIV binding to target cells was tested.

[6] = system: p24 gag protein of HIV; assay: HIV gag protein expression in chronically HIV-infected H9 cells (indirect immunofluorescence); assay type: cell-based; conditions: up to 25 micromoles, 120 hours
Method: The percentage of cells expressing p24 gag protein of HIV was determined by indirect immunofluorescence microscopy by using anti-HIV p24 murine monoclonal antibody.
Generally, it has been assumed that anti-sense sequences inhibit the expression of various genes by translation arrest, i.e. that they bind to mRNA and block its translation. In order to test this possibility, gag protein synthesis was analyzed in chronically HIV-infected and -producing H9 cells by indirect immunofluorescent assay under a microscope. […] Alternatively, the level of any translation arrest could have been below the threshold of detection by indirect immunofluorescent assay under a microscope. […] Therefore, one mechanism for the antiviral effect could depend on blocking viral replication perhaps prior to, or at the stage of, pro-viral DNA synthesis.

[7] = system: P1 nuclease; assay: Nuclease susceptibility, P1 nuclease; assay type: in vitro ADME
Excerpt: (§2) Several oligodeoxynucleotides were studied with regard to DNase sensitivity, cf. Table 5. These include cytidine homopolymers, ODN-4 (an anti-message 38-mer complementary to the 3' region of the art/trs region of HIV BH10 clone), and myc-1 (a 15-mer complementary to the initiation codon region of the C-myc oncogene). The DNases employed were predominantly endonuclease S1, the exo- and endonuclease P1, and snake venom (SV) phosphodiesterase. The concentration of S1 nuclease was ten-fold higher ([…]) for reactions of olifo-dC, since both the normal and PS analog were degraded extremely slowly be this enzyme. S1 and P1 nuclease digestion proceeded at 2-45 times more slowly for the S-ODNs than for the normal oligomers, with the […] being somewhat more readily digested than the 28-mer.

[8] = system: S1 nuclease; assay: Nuclease susceptibility, S1 nuclease; assay type: in vitro ADME
Excerpt: as §2

[9] = Solubility; assay type: physicochemical; conditions: acetate salts
Excerpt: Oligodeoxynucleotides with blocks of phosphorothioates at the 3' or 5' ends were synthesized by automatically changing the oxidation cycle at the required point. […] Introduction of a small amount of ammonia vapor, not aqueous ammonia, by a Pasteur pipette solubilized all the solids. The yield determined from absorbance at lambda max was about 30%.

[10] = system: T4, HLA-DR, T8, T3, or Tac antigen on ATH8 cells; assay: Surface antigens of ATH8 cells by fluorescent-activated cytofluorometry; assay type: cell-based; conditions: i micromole, sixteen hours
Method: as §1

[11] = system: HL60 cells; assay: Inhibition of HL60 cell proliferation (cell count); assay type: cell-based
[12] = system: HL60 cells; assay: DNA synthesis in HL60 cells (3H-thymidine incorporation); assay type: cell-based; conditions: FIG. 4, 50 uM, day 1
Method: To obtain the results shown in FIG. 4, nonsense or antisense S-ODNs were added at a final concentration of 50 uM on day 0 to cells seeded at 3×10^5/ml. DNA synthesis was determined on day 1 by incubating cells with 1 uCi 3H-thymidine for 4 hours, after which time 10% trichloroacetic acid was added and acid precipitatable radioactivity was trapped on Whatman glass fiber filters. The filters were subjected to liquid scintillation counting to determine levels of radioactivity.

[13] = Stability in human serum; assay type: in vitro ADME; conditions: 31P NMR

(dC)n n = 14 [S-dC14]
protection against the virus ([1]; 5 micromoles): only a moderate effect
anti-HIV activity / protection against cytopathic effect [1]: the most potent antiviral compound among those tested
anti-HIV activity / protection against cytopathic effect ([1]; listed as 14-mer oligo-dC): substantial protection against HIV cytopathic effect
induction of gamma-interferon [2]: No induction of gamma-interferon

d-(Ts Cs Gs Ts Cs Gs Cs Ts Gs Ts Cs Ts Cs C) [S-ODN-1]
anti-HIV activity / protection against cytopathic effect [1]: substantial activity against HIV; also recorded: protected against HIV
phosphorothioate bonds intact ([3]; 10 days): still intact after 10 days
degradation ([3]; a week): no significant degradation even after a week
decomposition based on the total signal intensity ([3]; after 10 days): less than 5%

Nc1ccn([C@H]2CC[C@@H](CO)O2)c(=O)n1 [2',3'-dideoxycytidine, reference compound]
protection against the virus ([1]; 0.5 micromoles): complete antiviral activity

Nc1ncnc2c1ncn2[C@H]1CC[C@@H](CO)O1 [2',3'-dideoxyadenosine, reference compound]
2.7 Kb env-containing internal KPN I fragment of virus genome ([4]; 50 micromoles (lanes E, J), days 4 and 7): detected only in lanes A and F
minimal effective concentration ([4]; Human immunodeficiency virus 1, ATH-8, Southern blot, days 4 and 7, read-out: lowest concentration significantly inhibiting de novo synthesis of viral DNA): 1 µM

d-(Gs Gs As Gs As Cs As Gs Cs Gs As Cs Gs A) [S-ODN-2]
anti-HIV activity / protection against cytopathic effect [1]: protected against HIV

(dC)n n = 28 [S-dC28]
inhibition of HIV binding to T4 molecule [5]: No inhibition
gag protein positivity [6]: failed to reduce gag protein positivity; also recorded: did not inhibit gag protein positivity
Ratio t1/2 PSoligo/t1/2 POoligo [7]: 15
2.7 Kb env-containing internal KPN I fragment of virus genome ([4]; 1, 5 and 7 micromoles S-dC28 (lanes B-D, G-I), days 4 and 7): detected only in lanes A and F
lowest concentration with complete inhibition of de novo synthesis of HIV DNA ([4]; Southern blot): 1 µmol
lowest concentration significantly inhibiting de novo synthesis of viral DNA ([4]; Southern blot, days 4 and 7): 1 µM
protection against the virus ([1]; 0.5 micromoles): complete protection against the virus; also recorded: complete antiviral activity
inhibition of viral replication and protection of ATH8 cells ([1]; 3 micromoles): 100%
anti-HIV activity / protection against cytopathic effect [1]: the most consistent and durable antiviral effects; also recorded: one of the most potent analogs tested
therapeutic index (ratio of cytotoxic to effective concentration) ([1]; in vitro): comparable in vitro index to those of dideoxycytidine and dideoxyadenosine
Ratio t1/2 PSoligo/t1/2 POoligo ([8]; oligo-dC, ten-fold higher S1 concentration): 2
solubility in 1M NaCl [9]: extremely insoluble in 1M NaCl
changes in T4, HLA-DR, T8, T3, or Tac antigen [10]: no detectable changes

dAACGTTGAGGGGCAT [S-myc-1]
effect on cell proliferation ([11]; 0.1 micro M, FIG. 3): effective
concentration relative to that required for the normal oligomer ([11]; HL60 cells): less than 1%
inhibition of cell proliferation (cell count) ([11]; HL60 cells, listed as anti-sense sequence): significant inhibition of cell proliferation
inhibition of cell proliferation (cell count) ([11]; HL60 cells, listed as phosphorothioate oligodeoxynucleotide analogs of the same anti-sense sequence): inhibit proliferation of HL60 cells
inhibition of cell proliferation (3H-thymidine incorporation) [12]: significant inhibition of cell proliferation
Ratio t1/2 PSoligo/t1/2 POoligo [7]: 4
Ratio t1/2 PSoligo/t1/2 POoligo ([8]; ODN-4 and myc-1): 9

dAACGTTGAGGGGCAT [O-myc-1, reference compound]
half-life in 50% human serum [13]: two to three

nonsense S-ODN: 5'-CTG AAG TGG CAT GAG; non-sense, same composition as anti-sense but in random sequence (dC*dT*dG*dA*dA*dG*dT*dG*dG*dC*dA*dT*dG*dA*dG) [reference compound]
inhibition of cell proliferation (cell count) ([11]; HL60 cells): not all nonsense S-ODN concentrations affected cell proliferation
inhibition of cell proliferation (cell count) ([11]; HL60 cells, listed as non-sense sequence): none of the controls used, namely, the non-sense sequence, has shown similar activity

B1: recombinant gamma-interferon: recombinant gamma-interferon (protein, UniProt P01579 24-161, looked up)
Interferon gamma: QDPYVKEAENLKKYFNAGHSDVADNGTLFLGILKNWKEESDRKIMQSQIVSFYFKLFKNFKDDQSIQKSVETIKEDMNVKFFNSNKKKRDDFEKLTNYSVTDLNVQRKAIHELIQVMAELSPAAKTGKRKRSQMLFRG
inhibition of cytopathic effect ([1]; 1000 units added directly to cultures): did not inhibit the cytopathic effect

Source: patent publication US5276019A, “Inhibitors for replication of retroviruses and for the expression of oncogene products” (The United States of America as represented by the …, priority 1988, dated 1994)
